The test system of experiment [1] is ENR+CD organoids (ISC to Paneth cell differentiation). In words: Primary screen: CCh-stimulated lysozyme secretion LYZ.S, 2.5-D 384-well ENR+CD organoid differentiation. The experiment is classed as cell-based, mouse. The following applies: primary screen. From the text:
(§1) High-throughput screening.

The subject of the next experiment is ENR+CD organoids. In words: Primary screen: ATP (CellTiter-Glo 3D, CTG) cell number/viability, 2.5-D 384-well ENR+CD organoids.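 As to all read-outs here: compounds given at plating and again on day 3 over a 6-day differentiation from ENR+CV stem-cell-enriched precursors, ATP measured on day 6, plate median as control.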 The following applies: primary screen; for Z.CTG: standard z score. In general terms: In ATP-based viability assays light output follows the ATP content of the culture.
Experiment [2] relates to ENR+CD organoids (ISC to Paneth cell differentiation). In words: Primary screen: basal (non-stimulated) lysozyme secretion LYZ.NS, 2.5-D 384-well ENR+CD organoid differentiation. In kind it is cell-based, mouse. The note with it: primary screen; for Z.LYZ.NS: standard z score.
Description: as §1

Where [3] appears, read: dose 0.08 uM, FC relative to plate median.
[4] abbreviates: dose 0.40 uM, FC relative to plate median.
Where [5] appears, read: dose 2.00 uM, FC relative to plate median.
The mark [6] stands for this setting: dose 10.00 uM, FC relative to plate median.
Where [7] appears, read: dose 0.08 uM, FC vs plate median.
[8] abbreviates: dose 0.40 uM, FC vs plate median.
Setting [9] is: dose 2.00 uM, FC vs plate median.
[10] abbreviates: dose 10.00 uM, FC vs plate median.

Structures can show the parent of a compound that is named as a salt.

For `Cn1cnc2c(F)c(Nc3ccc(Br)cc3Cl)c(C(=O)NOCCO)cc21` [Selumetinib (AZD6244)], the Dose.FC.LYZ.S is 0.004 log2 fold change in experiment [1] (setting [3]), −0.047 log2 fold change in experiment [1] (setting [4]), −0.175 log2 fold change in experiment [1] (setting [5]) and −0.211 log2 fold change in experiment [1] (setting [6]). The Dose.FC.CTG with ENR+CD organoids (setting [3]) is given as 0.164 log2 fold change; in the experiment with ENR+CD organoids (setting [4]) it was −0.165 log2 fold change; with ENR+CD organoids (setting [5]), −0.257 log2 fold change; in the experiment on ENR+CD organoids (setting [6]), −0.852 log2 fold change. For the same compound, the Z.CTG is listed as 0.393 in the experiment with ENR+CD organoids (dose 0.08 uM), −0.395 in the experiment with ENR+CD organoids (dose 0.40 uM), −0.613 with ENR+CD organoids (dose 2.00 uM) and −2.035 in the experiment with ENR+CD organoids (dose 10.00 uM). Besides, the Dose.FC.LYZ.NS is given as 0.021 log2 fold change in experiment [2] (setting [3]), −0.022 log2 fold change in experiment [2] (setting [4]), −0.097 log2 fold change in experiment [2] (setting [5]) and −0.140 log2 fold change in experiment [2] (setting [6]). Besides, the Z.LYZ.NS was 0.181 in experiment [2] (dose 0.08 uM), −0.188 in experiment [2] (dose 0.40 uM), −0.847 in experiment [2] (dose 2.00 uM) and −1.220 in experiment [2] (dose 10.00 uM).

Take `CN(C)C(=O)Nc1cccc(-c2ccc(N(C)C)cc2)c1` [Atglistatin]: the Dose.FC.LYZ.S in experiment [1] (dose 0.08 uM) is on record as 0.028 log2 fold change; in experiment [1] (dose 0.40 uM), −0.035 log2 fold change; in experiment [1] (dose 2.00 uM) it was 0.026 log2 fold change; in experiment [1] (dose 10.00 uM), 0.012 log2 fold change. The Dose.FC.CTG with ENR+CD organoids (dose 0.08 uM) is reported as 0.057 log2 fold change; with ENR+CD organoids (dose 0.40 uM) it was 0.004 log2 fold change; in the experiment with ENR+CD organoids (dose 2.00 uM) it was −0.045 log2 fold change; in the experiment on ENR+CD organoids (dose 10.00 uM) it was −0.431 log2 fold change. In addition, the “Z.CTG (standard z score)” value with ENR+CD organoids (dose 0.08 uM) was 0.137; with ENR+CD organoids (dose 0.40 uM), 0.009; with ENR+CD organoids (dose 2.00 uM) it was −0.108; in the experiment with ENR+CD organoids (dose 10.00 uM) it was −1.031. The Dose.FC.LYZ.NS in experiment [2] (dose 0.08 uM) is on record as 0.069 log2 fold change; in experiment [2] (dose 0.40 uM), 0.135 log2 fold change; in experiment [2] (dose 2.00 uM), 0.070 log2 fold change; in experiment [2] (dose 10.00 uM), −0.016 log2 fold change. For the same compound, the “Z.LYZ.NS (standard z score)” value in experiment [2] (dose 0.08 uM) was 0.604; in experiment [2] (dose 0.40 uM) it was 1.176; in experiment [2] (dose 2.00 uM), 0.613; in experiment [2] (dose 10.00 uM), −0.142.

With Maraviroc, the “Dose.FC.LYZ.S (log2 fold change)” value in experiment [1] (dose 0.08 uM) is 0.054; in experiment [1] (dose 0.40 uM) it was 0.195; in experiment [1] (dose 2.00 uM), 0.005; in experiment [1] (dose 10.00 uM), 0.077. The “Dose.FC.CTG (log2 fold change)” value is given as −0.084 in the experiment on ENR+CD organoids (dose 0.08 uM), 0.079 with ENR+CD organoids (dose 0.40 uM), −0.009 in the experiment with ENR+CD organoids (dose 2.00 uM) and 0.139 in the experiment on ENR+CD organoids (dose 10.00 uM). For the same compound, the “Dose.FC.LYZ.NS (log2 fold change)” value in experiment [2] (dose 0.08 uM) is 0.047; in experiment [2] (dose 0.40 uM), 0.041; in experiment [2] (dose 2.00 uM) it was 0.031; in experiment [2] (dose 10.00 uM), 0.087. The “Z.LYZ.NS (standard z score)” value was 0.411 in experiment [2] (dose 0.08 uM), 0.358 in experiment [2] (dose 0.40 uM), 0.269 in experiment [2] (dose 2.00 uM) and 0.759 in experiment [2] (dose 10.00 uM).

With `Cl.Cl.Cl.O[C@@H](COc1cccc2ncccc12)CN1CCN([C@@H]2c3ccccc3[C@@H]3[C@H](c4ccccc42)C3(F)F)CC1` [Zosuquidar (LY335979) 3HCl], the Dose.FC.LYZ.S in experiment [1] (dose 0.08 uM) is 0.124 log2 fold change; in experiment [1] (dose 0.40 uM) it was 0.127 log2 fold change; in experiment [1] (dose 2.00 uM), 0.129 log2 fold change; in experiment [1] (dose 10.00 uM), −0.200 log2 fold change. Moreover, the Dose.FC.CTG in the experiment with ENR+CD organoids (dose 0.08 uM) is listed as 0.017 log2 fold change; in the experiment with ENR+CD organoids (dose 0.40 uM), 0.197 log2 fold change; with ENR+CD organoids (dose 2.00 uM), 0.276 log2 fold change; with ENR+CD organoids (dose 10.00 uM), −0.193 log2 fold change. Further, the “Z.CTG (standard z score)” value with ENR+CD organoids (dose 0.08 uM) was 0.041; in the experiment with ENR+CD organoids (dose 0.40 uM) it was 0.470; with ENR+CD organoids (dose 2.00 uM) it was 0.659; with ENR+CD organoids (dose 10.00 uM) it was −0.461. The Dose.FC.LYZ.NS in experiment [2] (dose 0.08 uM) is recorded as 0.096 log2 fold change; in experiment [2] (dose 0.40 uM) it was 0.080 log2 fold change; in experiment [2] (dose 2.00 uM) it was 0.207 log2 fold change; in experiment [2] (dose 10.00 uM), −0.209 log2 fold change. The “Z.LYZ.NS (standard z score)” value was 0.839 in experiment [2] (dose 0.08 uM), 0.696 in experiment [2] (dose 0.40 uM), 1.802 in experiment [2] (dose 2.00 uM) and −1.821 in experiment [2] (dose 10.00 uM).

Turning to `CN1C(=O)C(Cc2c[nH]c3ccccc23)NC1=S` (stereo not shown) [Necrostatin-1], the Dose.FC.LYZ.S in experiment [1] (setting [7]) amounted to 0.077 log2 fold change; in experiment [1] (setting [8]), 0.038 log2 fold change; in experiment [1] (setting [9]) it was 0.092 log2 fold change; in experiment [1] (setting [10]), 0.229 log2 fold change. In addition, the Z.CTG is 0.244 in the experiment on ENR+CD organoids (dose 0.08 uM), 0.401 in the experiment on ENR+CD organoids (dose 0.40 uM), 0.027 in the experiment on ENR+CD organoids (dose 2.00 uM) and 0.328 with ENR+CD organoids (dose 10.00 uM). Further, the Dose.FC.CTG was determined as 0.102 log2 fold change in the experiment with ENR+CD organoids (setting [7]), 0.168 log2 fold change in the experiment on ENR+CD organoids (setting [8]), 0.011 log2 fold change with ENR+CD organoids (setting [9]) and 0.137 log2 fold change in the experiment with ENR+CD organoids (setting [10]). In addition, the Z.LYZ.NS in experiment [2] (dose 0.08 uM) turned out to be 0.524; in experiment [2] (dose 0.40 uM), 0.174; in experiment [2] (dose 2.00 uM), 1.338; in experiment [2] (dose 10.00 uM), 0.496. For the same compound, the Dose.FC.LYZ.NS in experiment [2] (setting [7]) was determined as 0.060 log2 fold change; in experiment [2] (setting [8]), 0.020 log2 fold change; in experiment [2] (setting [9]), 0.154 log2 fold change; in experiment [2] (setting [10]), 0.057 log2 fold change.

As for `O=[N+]([O-])C=Cc1ccc2c(c1)OCO2`, the Dose.FC.LYZ.S in experiment [1] (setting [7]) was 0.076 log2 fold change; in experiment [1] (setting [8]) it was 0.100 log2 fold change; in experiment [1] (setting [9]) it was 0.019 log2 fold change; in experiment [1] (setting [10]), −0.179 log2 fold change. The Z.CTG with ENR+CD organoids (dose 0.08 uM) is given as −0.037; with ENR+CD organoids (dose 0.40 uM), 0.146; in the experiment on ENR+CD organoids (dose 2.00 uM), 0.148; with ENR+CD organoids (dose 10.00 uM), −0.469. Also, the Dose.FC.CTG in the experiment with ENR+CD organoids (setting [7]) is on record as −0.016 log2 fold change; in the experiment with ENR+CD organoids (setting [8]), 0.061 log2 fold change; in the experiment with ENR+CD organoids (setting [9]), 0.062 log2 fold change; in the experiment with ENR+CD organoids (setting [10]) it was −0.197 log2 fold change. The Z.LYZ.NS is on record as 0.499 in experiment [2] (dose 0.08 uM), −0.088 in experiment [2] (dose 0.40 uM), 0.347 in experiment [2] (dose 2.00 uM) and −1.307 in experiment [2] (dose 10.00 uM). Moreover, the Dose.FC.LYZ.NS in experiment [2] (setting [7]) is on record as 0.057 log2 fold change; in experiment [2] (setting [8]), −0.010 log2 fold change; in experiment [2] (setting [9]) it was 0.040 log2 fold change; in experiment [2] (setting [10]), −0.150 log2 fold change.

As to `O=C(O)/C=C/c1ccc(Cn2ccnc2)cc1` [Ozagrel HCl], the Dose.FC.LYZ.S in experiment [1] (setting [7]) is 0.119 log2 fold change; in experiment [1] (setting [8]), 0.073 log2 fold change; in experiment [1] (setting [9]), 0.135 log2 fold change; in experiment [1] (setting [10]) it was 0.061 log2 fold change. The Dose.FC.CTG in the experiment on ENR+CD organoids (setting [7]) was 0.049 log2 fold change; in the experiment with ENR+CD organoids (setting [8]) it was 0.133 log2 fold change; in the experiment on ENR+CD organoids (setting [9]), 0.183 log2 fold change; with ENR+CD organoids (setting [10]), 0.229 log2 fold change. Moreover, the Z.LYZ.NS was 1.756 in experiment [2] (dose 0.08 uM), 0.000 in experiment [2] (dose 0.40 uM), 0.308 in experiment [2] (dose 2.00 uM) and −0.061 in experiment [2] (dose 10.00 uM). Moreover, the Dose.FC.LYZ.NS in experiment [2] (setting [7]) is listed as 0.202 log2 fold change; in experiment [2] (setting [8]) it was 0.000 log2 fold change; in experiment [2] (setting [9]) it was 0.035 log2 fold change; in experiment [2] (setting [10]), −0.007 log2 fold change.

As for `C[C@@H](c1ncncc1F)[C@](O)(Cn1cncn1)c1ccc(F)cc1F` [Voriconazole], the Dose.FC.LYZ.S is reported as 0.180 log2 fold change in experiment [1] (dose 0.08 uM), 0.120 log2 fold change in experiment [1] (dose 0.40 uM), 0.097 log2 fold change in experiment [1] (dose 2.00 uM) and 0.048 log2 fold change in experiment [1] (dose 10.00 uM). Moreover, the Dose.FC.CTG was 0.258 log2 fold change in the experiment with ENR+CD organoids (dose 0.08 uM), 0.306 log2 fold change with ENR+CD organoids (dose 0.40 uM), 0.285 log2 fold change with ENR+CD organoids (dose 2.00 uM) and 0.328 log2 fold change with ENR+CD organoids (dose 10.00 uM). For the same compound, the Dose.FC.LYZ.NS in experiment [2] (dose 0.08 uM) is 0.252 log2 fold change; in experiment [2] (dose 0.40 uM), 0.193 log2 fold change; in experiment [2] (dose 2.00 uM), 0.067 log2 fold change; in experiment [2] (dose 10.00 uM), 0.018 log2 fold change. For the same compound, the “Z.LYZ.NS (standard z score)” value in experiment [2] (dose 0.08 uM) stood at 2.192; in experiment [2] (dose 0.40 uM), 1.682; in experiment [2] (dose 2.00 uM), 0.588; in experiment [2] (dose 10.00 uM) it was 0.153.

(Values after US20220323406A1, “METHODS AND COMPOSITIONS FOR DIFFERENTIATING STEM CELLS” (Massachusetts Institute of Technology, priority 2019, published 2022).)
